The values that follow come from US8202865B2, “Oxadiazole derivatives” (Merck Serono SA, priority 2007, dated 2012).

Where a name gives a salt, the structure may show the parent alone.

By EC50 is commonly meant the concentration needed to bring the measured effect to its halfway point. Lower therefore signals higher potency in that assay.

T1 sequence (P21453 whole entry, species assumed): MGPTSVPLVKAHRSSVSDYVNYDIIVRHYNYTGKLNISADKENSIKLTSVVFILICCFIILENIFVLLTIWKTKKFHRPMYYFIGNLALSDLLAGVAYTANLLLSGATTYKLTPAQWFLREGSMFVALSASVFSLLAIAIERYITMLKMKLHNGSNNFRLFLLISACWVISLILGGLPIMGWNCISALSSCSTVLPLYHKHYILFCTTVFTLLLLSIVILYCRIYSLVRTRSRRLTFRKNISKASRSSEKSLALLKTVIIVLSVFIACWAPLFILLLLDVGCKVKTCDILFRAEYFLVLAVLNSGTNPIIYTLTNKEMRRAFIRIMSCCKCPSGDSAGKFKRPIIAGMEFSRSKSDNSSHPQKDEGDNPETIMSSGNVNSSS

The assay concerns the target T1, S1P1 (Homo sapiens, UniProt P21453).
T1 construct: expressed in transfected cells; host or cells: CHO cells (membranes)
The experiment in a line: 35S-GTPγS binding, S1P1 membranes. The format is biochemical. The following applies: membranes from CHO cells expressing S1P1; 60 min 30° C. On the procedure:
Receptor binding assay: Membranes were prepared from CHO cells expressing S1P1 or S1P3 for use in ligand and […] binding studies. Cells were suspended in 50 mM TRIS, pH 7.4, 2 mM EDTA, 250 mM Sucrose (buffer A) and 1× Complete protease inhibitor cocktail (Roche), and disrupted at 4° C. by N2 decompression using a cell disruption bomb (Parr Instrument). Following centrifugation at 1000 RPM for 10 min at 4° C., the supernatant was suspended in buffer A and centrifuged again at 19000 RPM for 60 min at 4° C. The pellet was then suspended in 10 mM HEPES, pH 7.4, 1 mM EDTA, 250 mM Sucrose (Buffer B), and 1× Complete EDTA-free protease inhibitor cocktail and homogenized using a potter. Membranes were flash frozen in liquid N2 and stored at −80° C. [33P]sphingosine 1-phosphate (3000 Ci/mmol; American Radiolabeled Chemicals, Inc.) was added to test compounds in DMSO. Membranes and WGA SPA beads (GE Healthcare) were added to give a final volume of 100 μl in 96-well plates with assay concentrations of 25 pM or 10 pM [33P]sphingosine 1-phosphate (respectively for S1P1 or S1P3), 50 mM HEPES, pH 7.5, 5 mM MgCl2, 100 mM NaCl, 0.4% fatty acid-free BSA, 1-5 μg/well of proteins and 100 μg/well of WGA SPA beads. Binding was performed for 60 min at RT on a shaker and bound radioactivity was measured on a PerkinElmer 1450 MicroBeta counter. Specific binding was calculated by subtracting remaining radioactivity in the presence of 1000-fold excess of unlabeled S1P. Binding data were analyzed using the GraphPad Prism program.
Measurements of ^35S-GTPγS Binding: Membranes (1 to 10 μg protein) prepared as described above, were incubated in 96-well Scintiplates (PerkinElmer) with test compounds diluted in DMSO, in 180 μl of 20 mM HEPES, pH 7.4, 10 mM MgCl2, 2 μg/well Saponin, 0.2% fatty acid free BSA (Assay buffer), 140 mM NaCl and 1.7 μM GDP. The assay was initiated with the addition of 20 μl of 1.5 nM [35S]-GTPγS (1100 Ci/mmol; GE Healthcare) in assay buffer. After 60 min incubation at 30° C. on a shaker, plates were centrifuged for 10 min at 2000 RPM. Supernatant was discarded and membrane bound radioactivity was measured on a PerkinElmer 1450 MicroBeta counter. Triplicate samples were averaged and expressed as % response relative to S1P activation in absence of compound (n=2).
On the technique in general: GTPγS is a poorly hydrolysed GTP analogue; its binding reports G protein activation.
On to `Cc1ccccc1-c1ccc(-c2nc(-c3ccc(C(=O)O)c(F)c3)no2)cc1COCC(C)C` [Example 60, 2-fluoro-4-{5-[2-(isobutoxymethyl)-2′-methylbiphenyl-4-yl]-1,2,4-oxadiazol-3-yl}benzoic acid], for which the EC50 turned out to be 3700 nM.

`Cc1ccccc1-c1ccc(-c2nc(-c3ccc(C(=O)O)c(F)c3)no2)cc1COCC1CC1` [Example 61, 4-(5-{2-[(cyclopropylmethoxy)methyl]-2′-methylbiphenyl-4-yl}-1,2,4-oxadiazol-3-yl)-2-fluorobenzoic acid] gave an EC50 of 2240 nM.

The molecule `CC(C)COc1ccc(-c2nc(-c3ccc(C(=O)O)c(F)c3)no2)cc1NS(C)(=O)=O` [Example 64, 2-fluoro-4-(5-{4-isobutoxy-3-[(methylsulfonyl)amino]phenyl}-1,2,4-oxadiazol-3-yl)benzoic acid] showed an EC50 of 4720 nM.

Molecule `CC(=O)Nc1cc(-c2nc(-c3ccc(C(=O)O)c(F)c3)no2)ccc1N1CCCCC1C` (centres unmarked) [Example 65, 4-{5-[3-(acetylamino)-4-(2-methylpiperidin-1-yl)phenyl]-1,2,4-oxadiazol-3-yl}-2-fluorobenzoic acid] returned an EC50 of 10400 nM.

In the case of `CCCN(CC(C)C)c1ccc(-c2nc(-c3ccc(C(=O)O)c(F)c3)no2)cc1NS(C)(=O)=O` [Example 66, 2-fluoro-4-(5-{4-[isobutyl(propyl)amino]-3-[(methylsulfonyl)amino]phenyl}-1,2,4-oxadiazol-3-yl)benzoic acid], the EC50 turned out to be 10000 nM.

`COC(=O)c1ccc(-c2noc(-c3ccc(N(C)C)c(NS(C)(=O)=O)c3)n2)cc1F` [Example 71, methyl 4-(5-{4-(dimethylamino)-3-[(methylsulfonyl)amino]phenyl}-1,2,4-oxadiazol-3-yl)-2-fluorobenzoate] registered a half-maximal effective concentration (EC50) of 481 nM.

`CCC(=O)Nc1cc(-c2nc(-c3ccc(C(=O)O)c(F)c3)no2)ccc1N1CCCCC1C` (centres unmarked) [Example 72, 2-fluoro-4-{5-[4-(2-methylpiperidin-1-yl)-3-(propionylamino)phenyl]-1,2,4-oxadiazol-3-yl}benzoic acid] registered an EC50 of 8510 nM.

For the molecule `Cc1ccccc1-c1ccc(-c2nc(-c3ccc(C(=O)O)c(F)c3)no2)cc1CN1CCCC1` [Example 76, 2-fluoro-4-{5-[2′-methyl-2-(pyrrolidin-1-ylmethyl)biphenyl-4-yl]-1,2,4-oxadiazol-3-yl}benzoic acid, Hydrochloride salt], the EC50 stood at 772 nM.

`CNCc1cc(-c2nc(-c3ccc(C(=O)O)c(F)c3)no2)ccc1-c1ccccc1C` [Example 77, 2-fluoro-4-(5-{2′-methyl-2-[(methylamino)methyl]biphenyl-4-yl}-1,2,4-oxadiazol-3-yl)benzoic acid, Hydrochloride salt] registered an EC50 of 2900 nM.

On to `CCc1ccccc1-c1ccc(-c2nc(-c3ccc(C(=O)OC)c(F)c3)no2)cc1COC` [Example 80, methyl 4-{5-[2′-ethyl-2-(methoxymethyl)biphenyl-4-yl]-1,2,4-oxadiazol-3-yl}-2-fluorobenzoate], for which the EC50 came out at 274 nM.

As to `COCc1cc(-c2nc(-c3ccc(C(=O)O)c(F)c3)no2)ccc1-c1cccc(OC)c1OC` [Example 82, 4-{5-[2′,3′-dimethoxy-2-(methoxymethyl)biphenyl-4-yl]-1,2,4-oxadiazol-3-yl}-2-fluorobenzoic acid], it took 1580 nM to reach a half-maximal effect (EC50).

Take `Cc1ccccc1-c1ccc(-c2nc(-c3ccc(C(=O)O)c(F)c3)no2)cc1S(C)(=O)=O` [Example 83, 2-fluoro-4-{5-[2′-methyl-2-(methylsulfonyl)biphenyl-4-yl]-1,2,4-oxadiazol-3-yl}benzoic acid]: the response was half-maximal at 3990 nM (EC50).

In turn, `COCc1ccccc1-c1ccc(-c2nc(-c3ccc(C(=O)O)c(F)c3)no2)cc1C` [Example 87, 2-fluoro-4-{5-[2′-(methoxymethyl)-2-methylbiphenyl-4-yl]-1,2,4-oxadiazol-3-yl}benzoic acid] came in with an EC50 of 2010 nM. Compared with the last molecule, the EC50 is about 2-fold lower.

Regarding `Cc1ccccc1-c1ccc(-c2nc(-c3ccc(C(=O)O)c(Cl)c3)no2)cc1CS(C)(=O)=O` [Example 88, 2-chloro-4-(5-{2′-methyl-2-[(methylsulfonyl)methyl]biphenyl-4-yl}-1,2,4-oxadiazol-3-yl)benzoic acid], it took 4640 nM to reach a half-maximal effect (EC50).

`COCc1cc(-c2nc(-c3ccc(C(=O)O)c(F)c3)no2)ccc1-c1cc(F)ccc1OC` [Example 89, 2-fluoro-4-{5-[5′-fluoro-2′-methoxy-2-(methoxymethyl)biphenyl-4-yl]-1,2,4-oxadiazol-3-yl}benzoic acid] registered an EC50 of 460 nM.

Take `CCOc1ccccc1-c1ccc(-c2nc(-c3ccc(C(=O)O)c(F)c3)no2)cc1COC` [Example 90, 4-{5-[2′-ethoxy-2-(methoxymethyl)biphenyl-4-yl]-1,2,4-oxadiazol-3-yl}-2-fluorobenzoic acid]: the EC50 was determined as 479 nM.

For the molecule `COCc1cc(-c2nc(-c3ccc(C(=O)O)c(F)c3)no2)ccc1-c1cc(F)ccc1F` [Example 91, 4-{5-[2′,5′-difluoro-2-(methoxymethyl)biphenyl-4-yl]-1,2,4-oxadiazol-3-yl}-2-fluorobenzoic acid], the response was half-maximal at 410 nM (EC50).

With `COCc1cc(-c2nc(-c3ccc(C(=O)O)c(F)c3)no2)ccc1-c1ccc(F)cc1C` [Example 94, 2-fluoro-4-{5-[4′-fluoro-2-(methoxymethyl)-2′-methylbiphenyl-4-yl]-1,2,4-oxadiazol-3-yl}benzoic acid], the EC50 was 513 nM. The EC50 values of the last two molecules are within 1.5-fold of each other.

In turn, `COCC#Cc1cc(-c2nc(-c3ccc(C(=O)O)c(F)c3)no2)ccc1-c1ccccc1C` [Example 96, 2-fluoro-4-{5-[2-(3-methoxyprop-1-yn-1-yl)-2′-methylbiphenyl-4-yl]-1,2,4-oxadiazol-3-yl}benzoic acid] gave an EC50 of 462 nM.

For `COCc1cc(-c2nc(-c3ccc(C(=O)O)c(F)c3)no2)ccc1-c1ccccc1Cl` [Example 98, 4-{5-[2′-chloro-2-(methoxymethyl)biphenyl-4-yl]-1,2,4-oxadiazol-3-yl}-2-fluorobenzoic acid], the EC50 came out at 67 nM.

In turn, `Cc1ccccc1-c1ccc(-c2nc(-c3ccc(C(=O)O)c(F)c3)no2)cc1O` [Example 99, 2-fluoro-4-[5-(2-hydroxy-2′-methylbiphenyl-4-yl)-1,2,4-oxadiazol-3-yl]benzoic acid] came in with an EC50 of 7700 nM.

For the molecule `COCCCc1cc(-c2nc(-c3ccc(C(=O)O)c(F)c3)no2)ccc1-c1ccccc1C` [Example 100, 2-fluoro-4-{5-[2-(3-methoxypropyl)-2′-methylbiphenyl-4-yl]-1,2,4-oxadiazol-3-yl}benzoic acid], the EC50 turned out to be 538 nM.

Consider `Cc1ccccc1-c1ccc(-c2nc(-c3ccc(C(=O)O)c(F)c3)no2)cc1OC(C)C` [Example 101, 2-fluoro-4-[5-(2-isopropoxy-2′-methylbiphenyl-4-yl)-1,2,4-oxadiazol-3-yl]benzoic acid], for which the EC50 was found to be 233 nM. Compared with the last molecule, the EC50 is about 2.3-fold lower.

On to `COCCOc1cc(-c2nc(-c3ccc(C(=O)O)c(F)c3)no2)ccc1-c1ccccc1C` [Example 103, 2-fluoro-4-{5-[2-(2-methoxyethoxy)-2′-methylbiphenyl-4-yl]-1,2,4-oxadiazol-3-yl}benzoic acid], for which the EC50 amounted to 257 nM.

As to `Cc1ccccc1-c1ccc(-c2nc(-c3ccc(C(=O)O)c(F)c3)no2)cc1OCC(C)C` [Example 104, 2-fluoro-4-[5-(2-isobutoxy-2′-methylbiphenyl-4-yl)-1,2,4-oxadiazol-3-yl]benzoic acid], the midpoint of the response, the EC50, lay at 800 nM. This EC50 lies about 3.1-fold higher than the previous one.

In the case of `Cc1ccccc1-c1ccc(-c2nc(-c3ccc(C(=O)O)c(F)c3)no2)cc1OCC1CC1` [Example 105, 4-{5-[2-(cyclopropylmethoxy)-2′-methylbiphenyl-4-yl]-1,2,4-oxadiazol-3-yl}-2-fluorobenzoic acid], the EC50 was 103 nM.

In turn, `COCc1cc(-c2nc(-c3cc(C(=O)OC)ccc3OC)no2)ccc1-c1ccccc1C` [Example 106, methyl 4-methoxy-3-{5-[2-(methoxymethyl)-2′-methylbiphenyl-4-yl]-1,2,4-oxadiazol-3-yl}benzoate] showed an EC50 of 50 nM. This EC50 is about 2.1-fold lower than that of the molecule before.

In turn, `COCc1cc(-c2nc(-c3cc(C(=O)O)ccc3OC)no2)ccc1-c1ccccc1C` [Example 107, 4-methoxy-3-{5-[2-(methoxymethyl)-2′-methylbiphenyl-4-yl]-1,2,4-oxadiazol-3-yl}benzoic acid] registered an EC50 of 133 nM.

Molecule `COCc1cc(-c2nc(-c3ccc(Cl)c(C(=O)O)c3)no2)ccc1-c1ccccc1C` [Example 108, 2-chloro-5-{5-[2-(methoxymethyl)-2′-methylbiphenyl-4-yl]-1,2,4-oxadiazol-3-yl}benzoic acid] gave an EC50 of 163 nM.
